Where a name gives a salt, the structure may show the parent alone. Read-outs that look alike come from different tables or passages of the source.
Columns and labels:
[1] = design: species or system New Zealand rabbits; settings: rabbit, in vivo, po; for haematic levels of Josamycin at the 6th hour: 6 h
Protocol: The determination of the Josamycin levels was performed both by biological way (Grove, D. C., and Randall, W. A., 1955) and by High Pressure Liquid Chromatography (HPLC).

in vivo [2] = assay: in vivo; design: species or system Wistar rats of both sexes; settings: rat, rats
Protocol: (§1) The acute toxicity of the compound of the invention was determined on mice and rats (Swiss mice of both sexes and Wistar rats of both sexes), after oral and intravenous administration of the compound of the invention. It was expressed as an LD50 value, calculated according to the method of Lichtfield and Wilcoxon. The obtained intravenous values were 418 mg/kg in rats and 386 mg/kg in mice.

in vivo [3] = assay: in vivo; design: species or system Swiss mice of both sexes; settings: mouse, mice
Protocol: as §1

male Wistar rats = assay: Chronic toxicity, 3 months; type: in vivo; settings: 250 mg/kg daily oral or 50 mg/kg daily subcutaneous, body weight, haematic crasis, urinary elimination, biochemical parameters, anatomo-pathology
Protocol: Three groups of male Wistar rats (average weight: 155 g) were used in this experiment. A first group received a daily dosage of 250 mg/kg of the compound to be tested by oral route, a second group received a daily amount of 50 mg/kg of the same substance by subcutaneous route, a third group (controls) received nothing. The experiment was carried on for 3 consecutive months.
Since the beginning, as well as during and after the treatment, the animals were constantly monitored with respect to the increase in body weight, the haematic crasis, the urinary elimination and various biochemical parameters. At the end of the treatment, all the animals were sacrificed and subjected to anatomo-pathological investigations.

pregnant rats = assay: Teratological investigation in pregnant rats; type: in vivo; settings: 50 mg/kg s.c. or 300 mg/kg p.o. daily, 1st to 15th day of pregnancy
pregnant rabbits = assay: Teratological investigation in pregnant rabbits; type: in vivo; settings: 50 mg/kg s.c. or 300 mg/kg p.o. daily, 7th to 15th day of pregnancy
newborns = assay: Neonatal investigation (growth and survival of the newborns); type: in vivo; settings: 30 days from birth, versus controls
[4] = Absorption, haematic and tissue levels (general statement); type: in vivo
[5] = tested on: Josamycin-sensitive bacteria; assay: Antibacterial spectrum in vitro, agar dilution method; type: cell-based; settings: versus Josamycin
[6] = tested on: Josamycin-sensitive bacteria; assay: Antibacterial spectrum in vivo, infected mice; settings: versus Josamycin
Solubility in water = type: physicochemical
[7] = Toxicity (general statement)
[8] = tested on: Josamycin-sensitive bacteria; assay: Antibacterial spectrum (general statement); settings: versus Josamycin
[9] = oral, could not be determined, no deaths up to 5000 mg/kg, read-out: oral LD50

Row | SMILES | haematic levels of Josamycin at the 6th hour [1] [µg/mL] | LD50 (in vivo [2]; intravenous, read-out: LD50) [mg/kg] | LD50 (in vivo [2]; [9]) [mg/kg] | LD50 (in vivo [3]; intravenous, read-out: LD50) [mg/kg] | LD50 (in vivo [3]; [9]) [mg/kg] | alteration of toxic character (male Wistar rats) | alteration of the normal embrional or fetal development (pregnant rats) | alteration of the normal embrional or fetal development (pregnant rabbits) | growth and survival of the newborns (newborns) | duration of haematic levels [1] | absorption ([4]; oral route) | duration of tissue and haematic levels ([4]; oral route) | tissue and haematic levels relative to equivalent amounts of Josamycin ([4]; oral, versus free base and propionate) | haematic levels of Josamycin relative to equivalent dosages of Josamycin ([4]; versus free base and propionate) | antibacterial spectrum [5] | antibacterial spectrum [6] | solubility in water (Solubility in water) | toxicity [7] | antibacterial spectrum [8]
1 | CO[C@@H]1[C@@H](O[C@@H]2O[C@H](C)[C@@H](O[C@H]3C[C@@](C)(O)[C@@H](OC(=O)CC(C)C)[C@H](C)O3)[C@H](N(C)C)[C@H]2O)[C@@H](CC=O)C[C@@H](C)[C@@H](O)/C=C/C=C/C[C@@H](C)OC(=O)C[C@H]1OC(C)=O [Josamycin, reference compound] | 0.139 |  |  |  |  |  |  |  |  |  |  |  |  |  |  |  |  |  | 
2 | CO[C@@H]1[C@@H](O[C@@H]2O[C@H](C)[C@@H](O[C@H]3C[C@@](C)(O)[C@@H](OC(=O)CC(C)C)[C@H](C)O3)[C@H](N(C)C)[C@H]2O)[C@@H](CC=O)C[C@@H](C)[C@@H](O)/C=C/C=C/C[C@@H](C)OC(=O)C[C@H]1OC(C)=O [salt of formula (I), salt of the macrolide antibiotic Josamycin with (-)-cis-1,2-epoxypropyl phosphonic acid] | 0.297 | 418 | > 5000 | 386 | > 5000 | did not reveal any alteration of toxic character | did not cause any alteration of the normal embrional or fetal development | did not cause any alteration of the normal embrional or fetal development | comparable with those of the controls | longer lasting | highly absorbed | significantly long lasting | nearly twice | twice | comparable with that of Josamycin | comparable with that of Josamycin | high solubility in water | very little toxic | comparable with that of Josamycin

Reference: patent US4607024A, “Epoxypropylphosphonate salt of jesamycin and pharmaceutical composition containing same” (Schering S.p.A., priority 1983, dated 1986)
